Experimental data published in US10899750B2, “Methods and compositions of small molecule modulators of hepatocyte growth factor (scatter factor) activity” (ANGION BIOMEDICA CORP., priority 2008, dated 2021).

What was measured:
[1] = tested on: NIH-3T3 cells transfected with the gene for the c-met receptor; experiment: Protection from apoptosis in NIH-3T3 cells transfected with c-met receptor (MTT assay); format: cell-based
Text: b. Protection from apoptosis in NIH-3T3 cells transfected with c-met receptor.

[2] = tested on: HUVECs; experiment: Nitric oxide production in endothelial cells (DAF2-DA fluorescence); format: cell-based, human; conditions: 24 hours incubation
Method: c. HGF and compounds of the invention stimulate nitric oxide production in endothelial cells. HUVECs are incubated with either vehicle, HGF/SF, instant compounds, or SNAP for 24 hours, loaded with the nitric oxide-sensitive fluorescence indicator DAF2-DA and imaged under a laser scanning confocal microscope.

[3] = tested on: MDCK cells; experiment: Anti-apoptotic activity in cultured cell lines (adriamycin-induced apoptosis); format: cell-based
Text: a. HGF/SF and instant compounds have significant anti-apoptotic activity in cultured cell lines.

[4] = tested on: LX2 cells (an immortalized human hepatic stellate cell line); experiment: Antifibrotic activity in hepatic stellate cells; format: cell-based; conditions: serum starved (activated) LX2 cells
Text: a. Antifibrotic Activity in Hepatic Stellate Cells.

Compound	Protection from adriamycin-induced apoptosis (MTT assay) [1]	Nitric oxide production (DAF2-DA fluorescence) [2]	Adriamycin-induced apoptosis ([3]; MDCK cells)	Cell viability ([3]; pretreatment, HUVEC and MDCK cell lines)	Collagen I mRNA expression [4]
HGF/SF: pleiotropic growth factor; heparin-binding heterodimeric protein composed of a 62 kDa α chain and a 34 kDa β chain	protect the cells from adriamycin-induced apoptosis	significant increase in fluorescence	significantly block adriamycin-induced apoptosis	significantly improves the cell viability	decrease in collagen I mRNA expression
CC(=O)N[C@@H](C(=O)O)C(C)(C)SN=O (racemic) [SNAP, reference compound]	–	significant increase in fluorescence	–	–	–
